From US20220259202A1, “1-(4-(AMINOMETHYL)BENZYL)-2-BUTYL-2H-PYRAZOLO[3,4-C]QUINOLIN-4-AMINE DERIVATIVES AND RELATED COMPOUNDS AS TOLL-LIKE RECEPTOR (TLR) 7/8 AGONISTS, AS WELL AS ANTIBODY DRUG CONJUGATES THEREOF FOR USE IN CANCER THERAPY AND DIAGNOSIS” (SUTRO BIOPHARMA, INC., priority 2019, published 2022)

What was measured:
Format in all cases: cell-based
human TLR7 = molecular target: T1, human TLR7 (Homo sapiens, UniProt Q9NYK1); assay: HEK293 SEAP reporter assay, human TLR7 (Biological Example 1); details: HEK293-humanTLR7 reporter cells, 4 hrs; read-out: hTLR7 EC50
T1 construct: host or cells: HEK293
T1 sequence (Q9NYK1 27-1049): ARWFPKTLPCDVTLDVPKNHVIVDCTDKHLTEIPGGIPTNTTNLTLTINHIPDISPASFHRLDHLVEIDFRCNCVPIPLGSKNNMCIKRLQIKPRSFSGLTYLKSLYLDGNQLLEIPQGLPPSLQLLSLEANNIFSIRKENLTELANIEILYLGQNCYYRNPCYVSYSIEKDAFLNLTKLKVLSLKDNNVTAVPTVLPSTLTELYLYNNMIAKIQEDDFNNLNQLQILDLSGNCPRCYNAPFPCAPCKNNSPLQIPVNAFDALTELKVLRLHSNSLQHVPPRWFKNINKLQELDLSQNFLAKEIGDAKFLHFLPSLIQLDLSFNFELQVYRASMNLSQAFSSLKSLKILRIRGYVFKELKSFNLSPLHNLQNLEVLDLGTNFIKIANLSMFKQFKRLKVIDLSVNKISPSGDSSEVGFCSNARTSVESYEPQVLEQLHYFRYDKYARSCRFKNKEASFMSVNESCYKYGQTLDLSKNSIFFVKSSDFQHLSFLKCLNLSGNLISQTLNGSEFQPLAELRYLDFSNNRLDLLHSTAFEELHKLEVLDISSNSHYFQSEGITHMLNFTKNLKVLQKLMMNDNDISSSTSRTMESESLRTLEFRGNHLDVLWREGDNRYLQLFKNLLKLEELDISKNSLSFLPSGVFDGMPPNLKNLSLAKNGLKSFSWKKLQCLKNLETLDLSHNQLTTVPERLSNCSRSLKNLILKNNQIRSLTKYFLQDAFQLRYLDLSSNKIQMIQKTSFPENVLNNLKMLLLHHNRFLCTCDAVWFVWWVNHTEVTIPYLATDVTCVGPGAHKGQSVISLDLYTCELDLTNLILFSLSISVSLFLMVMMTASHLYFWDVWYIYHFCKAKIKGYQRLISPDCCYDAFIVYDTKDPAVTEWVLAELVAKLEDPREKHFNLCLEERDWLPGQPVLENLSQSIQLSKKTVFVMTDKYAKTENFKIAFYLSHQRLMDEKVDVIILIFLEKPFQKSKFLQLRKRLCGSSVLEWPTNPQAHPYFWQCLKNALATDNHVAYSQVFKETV
Procedure: In this example, the activity of the TLR7 agonists to activate human TLR7, hTLR7 (or human TLR8, hTLR8, or mouse TLR7, mTLR7) pathway was evaluated on HEK293 reporter cells transfected with human TLR7 (or mouse TLR7 or human TLR8) and an inducible SEAP (secreted embryonic alkaline phosphatase) reporter gene. The SEAP reporter gene is placed under the control of the IFN-β minimal promoter fused to five NF-κB and AP-1-binding sites. Stimulation with a TLR7 agonist activates NF-KB and AP-1 which induces the production of SEAP. Levels of SEAP was determined with HEK-Blue Detection medium.
HEK293-humanTLR7, HEK293-mouseTLR7 and HEK293-humanTLR8 reporter cell lines were purchased from Invivogen and cell lines were maintained in manufacture recommended culture medium with required supplemental antibiotics. On the day of assay, the cells were harvested with Accutase and counted by the Vi-CELL Cell Viability Analyzers. Cells were re-suspended in HEK blue detection medium and a total of 10000 cells were seeded in each well of a 384-well flat bottom plate. Serial dilutions of TLR7 agonists free drugs (1:3 serial dilution starting from 5 μM) was added into treatment wells. Assay plates were cultured at 37° C. in a CO2 incubator for […]. HEK-Blue™ Detection medium changes to a purple/blue color in the presence of secreted SEAP, which can be detected by spectrophotometry at 620-655 nm. […]

mouse splenocytes = assay: Compound-induced cytokine release (ELISA); details: IL-6, MCP-1, TNFα and IP-10 (FIG. 6A-6D); 48 hr
Procedure: (§1) This example evaluates the ability of Compound 1 to induce cytokine release in human PBMCs, cyno PBMCs and mouse splenocytes. Compound A and resiquimod, above, were used as controls in the assays.
(§2) Human and cyno PBMCs, mouse splenocytes were isolated as described in previous example. On the day of the assay, 300k of PBMC or splenocytes in 50 μL of culture medium were seeded in 96-well cell culture plates. 50 μL of the test articles (formulated at 2× of starting concentration) were then added into the well. The cell mixtures were co-cultured in the presence of test articles and 10 μg/mL LPS-RS for 24 hrs (human PBMCs) or 48 hr (cyno PBMCs and mouse splenocytes). Released cytokines in cell culture medium were measured by ELISA.

human PBMCs = assay: Compound-induced cytokine release (ELISA); details: IL-6, MCP-1, IL1Ra (FIG. 4A-4C); 24 hrs
Procedure: as §1, §2

CCCCn1nc2c(N)nc3ccccc3c2c1Cc1ccc(CN)cc1 [Compound 1, 1-(4-(aminomethyl)benzyl)-2-butyl-2H-pyrazolo[3,4-c]quinolin-4-amine]
EC50 (human TLR7): 46.7 nM
cytokine release from mouse splenocytes (mouse splenocytes): stimulated strong
cytokine release from human PBMCs (human PBMCs): stimulated strong
